Measured values reported in patent US7759373B2, “Large conductance calcium-activated K channel opener” (Mitsubishi Tanabe Pharma Corporation, priority 2001, dated 2010).

system: rhythmic bladder contractions induced by substance P; experiment: Inhibitory effect on the rhythmic bladder contractions induced by substance P in anesthetized rats; format: in vivo, rat; conditions: time during which frequency of rhythmic contraction was completely inhibited, 0.25 mg/kg of the compound, substance P infusion
Protocol: Inhibitory effect on the rhythmic bladder contractions induced by substance P in anesthetized rats
For the experiments, Sprague-Dawley female rats (9 to 12 weeks old) weighing between 200 to 300 g were used. After urethane anesthetization (subcutaneously administered with a dose of 1.2 g/kg), cannulae were placed in both right and left femoral veins. One intravenous catheter was used for administration of compounds, and the other was for the substance P (0.33 μg/kg/min) infusion. We also cannulated into ureter to pass urine. Polyethylene catheters were inserted into carotid artery for continuous monitoring of arterial blood pressure and heart rate. For continuous infusion, transurethral bladder catheter was inserted into the bladder through the urethra and tied in place by a ligature around the urethral orifice. One end of the catheter was attached to a pressure transducer in order to measure intravesical pressure. The other end of the catheter was used for infusion of saline into the bladder. After stabilization of blood pressure and heart rate and after the bladder was emptied, cystometry was performed by filling the bladder slowly with about 0.6 ml of saline. After about 10 minutes, intravenous infusion of substance P (0.33 μg/kg/min) was started for stabilization of the micturition reflex. Compounds were administered after stable rhythmic bladder contraction was obtained over 15 minutes. All compounds were dissolved or suspended in saline containing 0.5% Tween 80 for intravenous administration (0.1 ml/kg).
A 100% inhibition time (minute) of the selected compounds of the present invention is shown in the following Table 65 with a rank of A, B or C. These ranges are as mentioned below. A≧20>B≧10>C (minute)

SMILES | 100% inhibition time range
COc1ccc(-c2nc(-c3ccc(Cl)s3)c(CC(=O)O)s2)cc1 [Preparation Example 570] | A (A≧20>B≧10>C (minute))
CCc1nc(-c2ccc(C#N)cc2)[nH]c1-c1ccccc1 [Preparation example 27] | B (A≧20>B≧10>C (minute))
N#CCCc1nc(-c2ccc(F)cc2)oc1-c1cccs1 [Preparation Example 337, 4-(2-cyanoethyl)-2-(4-fluorophenyl)-5-(2-thienyl)oxazole] | C (A≧20>B≧10>C (minute))
COc1cccc(-c2nc(CC(=O)O)c(-c3cccs3)o2)c1 [Preparation Example 263] | C (A≧20>B≧10>C (minute))
O=C(O)Cc1nc(-c2ccc3c(c2)CCCO3)oc1-c1ccsc1 [Preparation Example 443] | C (A≧20>B≧10>C (minute))
O=C(O)Cc1nc(-c2ccc(F)cc2)oc1-c1ccccc1F [Preparation Example 162] | C (A≧20>B≧10>C (minute))
CCc1nc(-c2ccc(C)nc2)[nH]c1-c1cncs1 [Preparation example 83] | B (A≧20>B≧10>C (minute))
O=C(O)Cc1[nH]c(-c2cc3ccccc3s2)nc1-c1ccc(Cl)s1 [Preparation Example 351] | C (A≧20>B≧10>C (minute))
CN(C)c1ncc(-c2nc(-c3cccs3)c(CC(=O)O)o2)cn1 [Preparation Example 505] | B (A≧20>B≧10>C (minute))
N#CCCc1nc(-c2ccc(F)cc2)[nH]c1-c1ccsc1 [Preparation example 46] | B (A≧20>B≧10>C (minute))
O=C(O)Cc1nc(-c2ccc(F)cc2)oc1-c1cc2ccccc2o1 [Preparation Example 254] | C (A≧20>B≧10>C (minute))
Cc1ccc(-c2nc(CC(=O)O)c(-c3ccsc3)o2)cc1 [Preparation Example 198] | C (A≧20>B≧10>C (minute))
O=C(O)Cc1nc(-c2ccc(F)cc2)oc1-c1ccccc1O [Preparation Example 237] | C (A≧20>B≧10>C (minute))
O=C(O)Cc1nc(-c2ccc(F)cc2)oc1-c1ccc(F)c(F)c1 [Preparation Example 166] | B (A≧20>B≧10>C (minute))
CCN(CC)C(=O)Cc1nc(-c2ccc(F)cc2)oc1-c1ccsc1 [Preparation Example 617] | B (A≧20>B≧10>C (minute))
CS(=O)(=O)Nc1ccccc1-c1oc(-c2ccc(F)cc2)nc1CC(=O)O [Preparation Example 238] | C (A≧20>B≧10>C (minute))
CCc1nc(-c2ccc(F)cc2)[nH]c1-c1cccnc1C [Preparation example 48] | C (A≧20>B≧10>C (minute))
CN(C)c1ccc(-c2nc(CC(=O)O)c(-c3ccc(Cl)s3)s2)cn1 [Preparation Example 608] | B (A≧20>B≧10>C (minute))
COc1cc(-c2nc(CC(=O)O)c(-c3ccc(Cl)s3)o2)ccc1O [Preparation Example 289] | B (A≧20>B≧10>C (minute))
CN(C)c1ccc(-c2nc(CC(=O)O)c(-c3ccc(Cl)s3)o2)cn1 [Preparation Example 260] | A (A≧20>B≧10>C (minute))
NC(=O)Cc1nc(-c2ccc(F)cc2)oc1-c1ccsc1 [Preparation Example 615] | B (A≧20>B≧10>C (minute))
O=C(O)Cc1nc(-c2ccc3nccn3c2)oc1-c1ccc(Cl)s1 [Preparation Example 630] | C (A≧20>B≧10>C (minute))
NC(C(=O)O)c1nc(-c2ccc(F)cc2)oc1-c1ccc(Cl)s1 (stereo not drawn) [Preparation Example 627] | C (A≧20>B≧10>C (minute))
COCc1nc(-c2ccc(F)cc2)[nH]c1-c1ccsc1 [Preparation example 122] | B (A≧20>B≧10>C (minute))
